Melting point data for 88 molecules are collected here from a melting point compilation (Tetko et al.; mined from patent text by program, amines drawn as free bases though some values may be those of a salt).

For orientation: melting point means the temperature, or range, at which the solid turns liquid.

In turn, `O=C(Nc1c[nH]nc1C(=O)NCC(O)Cc1ccccc1)c1ccccn1` (stereo not drawn) yielded a melting point of 180 to 181 °C.
`N#Cc1cnc2cc(Br)ccc2c1Nc1ccc(Cc2ccccc2)cc1` gave a melting point of 195 to 197 °C.
Regarding `CCc1nc(Cl)c(Oc2cc(OC)ccc2Cl)c(Cl)n1`, the melting point lay in the range of 113 to 114 °C.
For the molecule `O=C1C(O)=C(Br)C(=O)c2ccc(F)cc21`, the melting point is 183 °C.
The result for `CCCc1c(OCCCC#CCO)ccc(C(C)=O)c1O` reads 88 to 90 °C.
The result for `COC(=O)CC1CCN(CCC=C2c3ccccc3OCOc3ccccc32)C1` (stereo not drawn) reads 70 to 90 °C; that for `COC1c2ccccc2CSc2ccc(C#N)cc21` (stereo not drawn), 117 to 118 °C; that for `CCOC(=O)Nc1nc(-c2ccccc2)c(-c2nc3ccccc3c(=O)n2-c2cccc(C)c2)s1`, 261 to 263 °C.
Take `O=C1CCCN1CCCNc1cc(C(c2cc(F)ccc2F)S(=O)(=O)c2ccc(Cl)cc2)c(Cl)cn1` (stereo not drawn): the melting point lay within 78 to 80 °C.
The result for `CCCCCCCCCCCCCCC(=O)c1ccc2cc(O)c(O)cc2c1` reads 133 to 134 °C; that for `CCCCCC1CCN([C@H]2CC[C@H](C(=O)OC)CC2)CC1`, 5 °C; that for `COCN1c2cc(C(=O)OC)ccc2Sc2nccnc21`, 151 to 152 °C.
The result for `O=S(=O)(c1ccccc1)n1c(Cc2cc3ccccc3n2S(=O)(=O)c2ccccc2)cc2ccccc21` reads 144 to 145 °C; that for `O=c1[nH]c(NCCCNc2ncccc2Cl)ncc1Cc1ccc(Cl)cc1`, 180 to 181 °C; that for `CN1CCN(CCCNc2ncc3cc(-c4c(Cl)cccc4Cl)c(N)nc3n2)CC1`, 208 to 211 °C.
In the case of `Cc1ccc(CC2=NOS(=O)N2)cc1C` (stereo not drawn), the melting point lay in the range of 127 to 130 °C.
The result for `COc1cc(Nc2nccc(-c3ccc(N4CC(C)NC(C)C4)nc3)n2)cc(OC)c1OC` (stereo not drawn) reads 110 to 111 °C; that for `COC(=O)c1ncnn1C1OC(COC(=O)c2ccccc2)C(OC(=O)c2ccccc2)C1OC(=O)c1ccccc1` (stereo not drawn), 122 to 124 °C.
The result for `CCC(C(=O)C(C)C(O)C(C)CCCC(=O)c1c(NC(C)=O)cc(C)c(O)c1C(=O)O)C1OC(CC)(C2CCC(O)(CC)C(C)O2)CC1C` (stereo not drawn) reads 190 to 192 °C.
The result for `Cn1nc(C(=O)OCC23CCCN(CC2)C3)c2ccccc21` (stereo not drawn) reads 93 to 95 °C; that for `Cc1cccc([N+](=O)[O-])c1CC(CC(=O)O)C(=O)O` (stereo not drawn), 172 to 176 °C.
In turn, `COc1ncnc(OC)c1NC(=O)CCl` gave a melting point of 193 to 195 °C.
`Cc1cccc(C)c1Nc1nc(N)ns1` registered a melting point of 180 °C.
The result for `NC(=O)Cc1ccc(C2CCCCC2)cc1` reads 167 to 168 °C; that for `O=S1(=O)N(CCCN2CCN(c3ccc(F)cc3)CC2)c2cccc3c2N1CCC3`, 98 °C; that for `C[C@]1(COc2ccc(N3CCC(OCc4ccc(OC(F)(F)F)cc4)CC3)cc2)Cn2cc([N+](=O)[O-])nc2O1`, 214 to 218 °C.
The result for `N#CCc1cccc2c(-c3ccc(Br)cc3)nccc12` reads 122 °C; that for `N#Cc1ccc(-c2ccc(O)c(C(F)(F)F)c2)cc1`, 201 to 203 °C; that for `CCOc1nc2c(c3ccccc13)c1cc(Cl)ccc1n2C`, 161 to 163 °C.
In turn, `O=c1cc(Nc2cccc(-c3ccncc3)c2)c1=O` showed a melting point of 252 to 256 °C.
In turn, `COc1ccc(C#CCSc2ccc(OCC(=O)O)c(C)c2)cc1` displayed a melting point of 143 to 144 °C.
The result for `COc1cc(COc2nn(-c3ccccc3)cc2/C=C/c2nnc(C)o2)ccc1OCc1nc(-c2ccco2)oc1C` reads 186 to 187 °C.
The result for `CC(=O)C(O)C1OC(n2cc(F)c(=O)[nH]c2=O)CC1(O)C(C)=O` (stereo not drawn) reads 148 to 149 °C; that for `CCCc1c(OCc2cccc(C=CC(=O)O)c2)ccc(C(C)=O)c1O`, 195 to 196 °C.
The result for `C/C(=N\OCCN1CCOCC1)[C@H]1CC[C@H]2[C@@H]3CCC4=CC(=O)CC[C@]4(C)[C@H]3CC[C@]12C` reads 107 to 108 °C.
Turning to `Clc1nc(Cl)c2c(n1)CCCS2`, the melting point came to 110 °C.
The result for `Cc1ccc2nc(NC(=O)c3ccc(C(C)(C)CCc4nnn[nH]4)cc3)cn2c1` reads 245 to 246 °C.
For the molecule `Cc1cc(O)ccc1-c1cc2cc(O)ccc2o1`, the melting point lay in the range of 167 to 169 °C.
`Cn1cc(-c2cc3cccnc3[nH]2)c2cc(C(=O)N(CCO)CCO)ccc21` came in with a melting point of 230 to 232 °C.
The result for `Cc1nc2c(c3c1[nH]c1ccc(F)cc13)C(=O)CC(C(C)C)C2` (stereo not drawn) reads 221 to 223 °C; that for `COC(=O)/C=C(\CCCCc1ccccc1)Sc1ccc(OC)c(OC)c1`, 53 to 55 °C.
The result for `COc1cc2ncc(F)c(Cl)c2cc1OC` reads 159 to 160 °C; that for `COc1ccc(F)c(F)c1C(=O)c1cnc(Cl)nc1Cl`, 137 to 139 °C.
The molecule `CC(C)(C)C(=O)C(=C1SCCS1)n1cncn1` registered a melting point of 141 °C.
The result for `Cc1nc2ccc(C(=O)O)nc2n1Cc1ccc(Cl)cc1Cl` reads more than 260 °C; that for `Cc1c(Cl)cccc1N=Cc1ccccc1Cl`, 83 to 85 °C; that for `CNS(=O)(=O)CCCn1cnc2c(N)nc3ccccc3c21`, 155 to 157 °C.
The molecule `Nc1cccc(C(CC2=NCCN2)c2ccccn2)c1` (stereo not drawn) displayed a melting point of 154 to 155 °C.
In the case of `COc1cc2c(cc1O)CCN(Cc1cccc(C(C)=O)c1)C2`, the melting point lay in the range of 132 to 134 °C.
The result for `CN(C)Cc1cc(C(N)=O)ccc1OCCN(C)Cc1ccc(Cl)cc1` reads 123 to 124 °C; that for `Cc1c(NC(=O)c2ccc(OC[C@H]3CCCO3)cc2)ccc2cc(CNCC(C)(C)C)cnc12`, 110 to 111 °C.
`CCCc1nc2c(N)nc3ccccc3c2n1CCCCCC(=O)N1CCOCC1`: the melting point lay in the range of 149 to 151 °C.
Take `O=C(OC1Oc2ccccc2-n2cnc(-c3noc(C4CC4)n3)c21)c1ccccc1` (stereo not drawn): the melting point fell in the range of 165 to 167 °C.
Take `CN1c2ccc(Cl)cc2NC(=S)c2cscc21`: the melting point was in the range of 238 to 240 °C.
For the molecule `CCOC(=O)C(NC(=O)Nc1ccccc1Cl)(c1nc(OC)cc(OC)n1)C(C)C` (stereo not drawn), the melting point lay in the range of 84 to 87 °C.
The result for `COC(=O)c1ccc(C(=O)N2CCN(c3ncccc3[N+](=O)[O-])CC2)nc1` reads 129 to 130 °C.
`CC(C)Oc1ccc2nc[nH]c(=O)c2c1` showed a melting point of 206 to 208 °C.
The result for `Cc1ccccc1-c1cc(O)ncc1C(=O)N(C)Cc1cc(C(F)(F)F)cc(C(F)(F)F)c1` reads 91 to 93 °C; that for `COc1ccc(C2=NN(c3ccccn3)C(=O)[C@H]3CC=CC[C@@H]23)cc1OC` (relative stereo), 147 to 148 °C.
Molecule `COc1ccc(C(=O)Nc2cc(N)ccc2Br)cc1OC` registered a melting point of 154 to 155 °C.
The result for `Cc1cc(-c2nnc3c4ccccc4c(OCc4cnc5ccccc5n4)nn23)no1` reads 243 to 245 °C; that for `O=C1c2c(Cl)cccc2-n2cnc(/C=C\Cl)c2[C@@H]2CCN12`, 189 to 191 °C.
Turning to `OC(Cc1ccccn1)c1ccccc1` (stereo not drawn), the melting point was in the range of 105 to 107 °C.
Take `CCOC(=O)C1CN(C(=O)C(C)(C)C)CCC1=O` (stereo not drawn): the melting point lay in the range of 46 to 50 °C.
The molecule `CC(C)(C)C(=O)Oc1ccc(-c2nn(C3CCCC3)c3c(F)cccc23)cc1` had a melting point of 105 °C.
The result for `COc1cc2nc(C(C)(C)C)sc2cc1NC(=S)N1CCN(CCO)CC1` reads 161 to 162 °C.
`CCOC(=O)C(CC)Sc1nc2c([nH]1)c(=O)n(C)c(=O)n2C` (stereo not drawn) gave a melting point of 175 °C.
`CCOC1Nc2c(ccc(C)c2OC(C)=O)C(=O)N2CCCC12` (stereo not drawn) returned a melting point of 145 to 147 °C.
The molecule `CCOC(=O)c1ccc(C2=NOC(c3cc(Cl)cc(Cl)c3)(C(F)(F)F)C2)cc1[N+](=O)[O-]` (stereo not drawn) yielded a melting point of 160 to 162 °C.
The result for `CCCCCCCCCCCCCCCCNc1ccc(C(=O)NS(=O)(=O)c2ccc(C)cc2)cc1` reads 123 to 124 °C; that for `O=C1Nc2ccccc2Sc2c1csc2Cl`, 287 to 288 °C.
As for `COC(=O)C[C@@H](CC(=O)C=Cc1c(-c2ccc(F)cc2)c(-c2ccccc2)c(C(=O)Nc2ccccc2)n1C(C)C)O[Si](C)(C)C(C)(C)C`, the melting point fell in the range of 62 to 64 °C.
Take `Cc1cc(CCCOc2c(Cl)cc(C(=O)O)cc2Cl)on1`: the melting point lay within 156 to 157 °C.
The result for `O=C(NS(=O)(=O)c1cc(C(F)(F)F)ccc1Cl)c1cn2cc(Br)cnc2n1` reads more than 250 °C; that for `Cc1cc(Oc2ncc(C(F)(F)F)cc2Cl)nn1C(=O)Nc1cccc(Cl)c1`, 129 to 130 °C; that for `CC(C)(C)c1ccc(C=NOCCOc2ccc(C(=O)O)c(OCc3ccc(C(F)(F)F)cc3)c2)cc1`, 164 to 165 °C.
The molecule `C(=C\c1nc(COc2cccc(CCCCn3ccnc3)c2)co1)/c1ccccc1` showed a melting point of 75 to 76 °C.
In turn, `COC(=O)COc1cccc2c(CCOS(C)(=O)=O)coc12` yielded a melting point of 111 °C.
Molecule `O=c1[nH]c2ccccc2nc1-c1ccc(Cl)cc1Cl` registered a melting point of 300 °C.
In turn, `Cc1cc(-c2cc(C(F)(F)F)n3cnc(-c4ccncc4)c3n2)ccc1C(F)(F)F` returned a melting point of 225 °C.
The result for `NC(=O)N1c2ccccc2CC(=NNc2ccccc2)c2ccccc21` reads 220 to 221 °C.
The result for `Cc1ccc(C(=O)CCN(C)Cc2cccc3ccccc23)cc1` reads 92 to 95 °C.
Take `CC(C)(C)OC(=O)c1ccc(OCCCCl)cc1`: the melting point fell in the range of 57.5 to 58.5 °C.
The result for `CCN(CC)CCOc1ccc(-c2sc3ccccc3c2C(=O)c2cc(C)cc(C)c2)cc1` reads 138 to 142 °C; that for `CCC1(CCCCl)C(=O)Nc2ccc(Cl)cc21` (stereo not drawn), 105 to 107 °C; that for `CC(CN=C(O)C(Cl)=C(Cl)C(=O)O)Cc1ccc(C(C)(C)C)cc1` (stereo not drawn), 64 to 65 °C.
The result for `O=S(=O)(c1ccccc1)N1C[C@@H](c2c[nH]c3ccccc23)[C@H](c2cn3c4c(cccc24)CCC3)C1` reads 115 to 125 °C; that for `CC(=O)c1ccc(-c2ccc(C(=O)Nc3ccc4cc(CN5CCCC5)cnc4c3C)cc2)s1`, 194 to 195 °C.
